In brackets after ≈: the same amount, converted by molar mass.
Tests used:
Assay in all cases: MIC, agar incorporation method
S. aureus ATCC 25923 = details: agar incorporation
MRSA 15187 = details: agar incorporation
MRSA 33 = details: agar incorporation
Ent. faecalis ATCC 29212 = details: agar incorporation
VRE 6A (Ent. faecium 6A) = details: agar incorporation
Strep. pyog. ATCC 19615 = details: agar incorporation
Strep. pne. ATCC 6303 = details: agar incorporation
S. pneum AB 34 = details: agar incorporation
MRSA 562 = details: agar incorporation; Table 1

SMILES | MIC S. aureus 25923 (S. aureus ATCC 25923) | MIC MRSA 15187 (MRSA 15187) | MIC MRSA 33 (MRSA 33) | MIC E. faecalis 29212 (Ent. faecalis ATCC 29212) | MIC VRE 6A (VRE 6A (Ent. faecium 6A)) | MIC S. pyogenes 19615 (Strep. pyog. ATCC 19615) | MIC S. pneum 6303 (Strep. pne. ATCC 6303) | MIC S. pneum AB 34 (S. pneum AB 34) | MIC MRSA 562 (MRSA 562)
CC(=O)NC[C@H]1CN(c2ccc(N3CCN(C(=O)c4ccco4)CC3)c(F)c2)C(=O)O1 [Compound No. 01, (S)-N-[[3-[3-Fluoro-4-[N-1-[4-(2-furoyl)piperazinyl]]phenyl]-2-oxo-5-oxazolidinyl]methyl]acetamide] | 2 µg/mL (≈ 4.65 µM) | 2 µg/mL (≈ 4.65 µM) | 4 µg/mL (≈ 9.29 µM) | 2 µg/mL (≈ 4.65 µM) | 2 µg/mL (≈ 4.65 µM) | 1 µg/mL (≈ 2.32 µM) | 2 µg/mL (≈ 4.65 µM) | 1 µg/mL (≈ 2.32 µM) | 
CC(=O)NC[C@H]1CN(c2ccc(N3CCN(C(=O)c4ccc(CCl)o4)CC3)c(F)c2)C(=O)O1 [Compound No. 05, (S)-N-[[3-Fluoro-4-[N-1[4-(5-chloromethyl-2-furoyl)piperazinyl]phenyl]-2-oxo-5-oxazolidinyl]methyl]acetamide] | 16 µg/mL (≈ 33.4 µM) | 4 µg/mL (≈ 8.35 µM) | 4 µg/mL (≈ 8.35 µM) | 8 µg/mL (≈ 16.7 µM) | 8 µg/mL (≈ 16.7 µM) | 4 µg/mL (≈ 8.35 µM) | 4 µg/mL (≈ 8.35 µM) | 4 µg/mL (≈ 8.35 µM) | 
CC(=O)NC[C@H]1CN(c2ccc(N3CCN(Cc4ccc(Cl)s4)CC3)c(F)c2)C(=O)O1 [Compound No. 10, (S)-N[[3-[3-Fluoro-4-[N-1[4-{2-thienyl(5-chloro)methyl}]piperazinyl]phenyl]2-oxo-5-oxazolidinyl]methyl]acetamide] | 8 µg/mL (≈ 17.1 µM) | 4 µg/mL (≈ 8.57 µM) | 4 µg/mL (≈ 8.57 µM) | 8 µg/mL (≈ 17.1 µM) | 4 µg/mL (≈ 8.57 µM) | 1 µg/mL (≈ 2.14 µM) | 4 µg/mL (≈ 8.57 µM) | 8 µg/mL (≈ 17.1 µM) | 
CC(=O)NC[C@H]1CN(c2ccc(N3CCN(Cc4ccc([N+](=O)[O-])o4)CC3)c(F)c2)C(=O)O1.O=C(O)CC(O)(CC(=O)O)C(=O)O [Compound No. 17] | 2 µg/mL | 2 µg/mL | 2 µg/mL | 2 µg/mL | 4 µg/mL | 1 µg/mL | 2 µg/mL | 1 µg/mL | 
CC(=O)NC[C@H]1CN(c2ccc(N3CCN(Cc4ccc([N+](=O)[O-])s4)CC3)c(F)c2)C(=O)O1 [Compound No. 23, (S)-N[[3-[3-Fluoro-4-[N-1[4-(2-thienyl(5-nitro)methyl}]piperazinyl]phenyl]2-oxo-5-oxazolidinyl]methyl]acetamide] | 8 µg/mL (≈ 16.8 µM) | 8 µg/mL (≈ 16.8 µM) | 8 µg/mL (≈ 16.8 µM) | 8 µg/mL (≈ 16.8 µM) | 8 µg/mL (≈ 16.8 µM) | 1 µg/mL (≈ 2.09 µM) | 8 µg/mL (≈ 16.8 µM) | 8 µg/mL (≈ 16.8 µM) | 
CC(=O)NC[C@H]1CN(c2ccc(N3CC4C(C3)C4N(C)C(=O)c3ccoc3)c(F)c2)C(=O)O1 (stereo partly drawn) [Compound No. 32, (S)-N-[[3-[3-Fluoro[4-[3-(1α,5α,6α)-6-[N-(3-furoyl)-N-methyl]amino]-3-azabicyclo-[3.1.0]hexane]phenyl]-2-oxo-5-oxazolidinyl]methyl]acetamide] | 8 µg/mL (≈ 17.5 µM) | 8 µg/mL (≈ 17.5 µM) | 8 µg/mL (≈ 17.5 µM) | 8 µg/mL (≈ 17.5 µM) | 8 µg/mL (≈ 17.5 µM) | 1 µg/mL (≈ 2.19 µM) | 4 µg/mL (≈ 8.76 µM) | 4 µg/mL (≈ 8.76 µM) | 
CC(=O)NC[C@H]1CN(c2ccc(N3C[C@@H]4[C@H](C3)[C@H]4N(C)C(=O)c3ccc(Br)o3)c(F)c2)C(=O)O1 [Compound No. 33, (S)-N-[[3-[3-Fluoro[4-[3-(1α,5α,6α)-6-[N-(5-bromo-2-furoyl)-N-methyl]amino]-3-azabicyclo-[3.1.0.]hexane]phenyl]-2-oxo-5-oxazolidinyl]methyl]acetamide] | 4 µg/mL (≈ 7.47 µM) | 4 µg/mL (≈ 7.47 µM) | 4 µg/mL (≈ 7.47 µM) | 4 µg/mL (≈ 7.47 µM) | 4 µg/mL (≈ 7.47 µM) | 0.5 µg/mL (≈ 0.934 µM) | 8 µg/mL (≈ 14.9 µM) | 4 µg/mL (≈ 7.47 µM) | 
CC(=O)NC[C@H]1CN(c2ccc(N3CCC(N(C)Cc4ccc([N+](=O)[O-])s4)CC3)c(F)c2)C(=O)O1 [Compound No. 51, (S)-N-[[3-[4-[4-(N-methyl-N-2-thienyl(5-nitro)methyl)aminopiperidine-1-yl]-3-fluorophenyl]-2-oxo-oxazolidin-5-yl]methyl]acetamide] | 2 µg/mL (≈ 3.96 µM) | 1 µg/mL (≈ 1.98 µM) | 1 µg/mL (≈ 1.98 µM) | 4 µg/mL (≈ 7.91 µM) | 4 µg/mL (≈ 7.91 µM) | 0.5 µg/mL (≈ 0.989 µM) |  | 2 µg/mL (≈ 3.96 µM) | 1 µg/mL (≈ 1.98 µM)
CC(=O)NC[C@H]1CN(c2ccc(N3CCN(Cc4ccc(C=NO)o4)CC3)c(F)c2)C(=O)O1 [Compound No. 60, (S)-N-[[3-[3-Fluoro-4-[N-1-[4-(2-furyl-(5-aldoxime)methyl}]piperazinyl]phenyl]-2-oxo-5-oxazolidinyl]methyl]acetamide] | 2 µg/mL (≈ 4.35 µM) | 2 µg/mL (≈ 4.35 µM) | 2 µg/mL (≈ 4.35 µM) | 8 µg/mL (≈ 17.4 µM) | 16 µg/mL (≈ 34.8 µM) | 4 µg/mL (≈ 8.71 µM) | 8 µg/mL (≈ 17.4 µM) | 8 µg/mL (≈ 17.4 µM) | 
COC(=O)Cc1ccc(NC(=O)ON=Cc2ccc(CN3CCN(c4ccc(N5C[C@H](CNC(C)=O)OC5=O)cc4F)CC3)o2)cc1 [Compound No. 61] | 8 µg/mL (≈ 12.3 µM) | 8 µg/mL (≈ 12.3 µM) | 8 µg/mL (≈ 12.3 µM) | 8 µg/mL (≈ 12.3 µM) | 8 µg/mL (≈ 12.3 µM) | 8 µg/mL (≈ 12.3 µM) | 8 µg/mL (≈ 12.3 µM) | 8 µg/mL (≈ 12.3 µM) | 
CC(=O)NC[C@H]1CN(c2ccc(N3CC4C(C3)C4N(C)Cc3ccc(C=O)o3)c(F)c2)C(=O)O1 (stereo partly drawn) [Compound No. 72, (S)-N-[[3-[3-Fluoro[4-[3-(1α,5α,6α)-6-[N-(5-formyl-2-furylmethyl)-N-methyl]-amino]-3-azabicyclo-[3.1.0]hexane]phenyl]-2-oxo-5-oxazolidinyl]methyl]acetamide] | 8 µg/mL (≈ 17 µM) | 4 µg/mL (≈ 8.5 µM) | 4 µg/mL (≈ 8.5 µM) | 8 µg/mL (≈ 17 µM) | 8 µg/mL (≈ 17 µM) | 0.25 µg/mL (≈ 0.531 µM) | 4 µg/mL (≈ 8.5 µM) | 4 µg/mL (≈ 8.5 µM) | 
CC(=O)NC[C@H]1CN(c2ccc(N3CC4C(C3)C4N(C)C(=O)c3ccsc3)c(F)c2)C(=O)O1 (stereo partly drawn) [Compound No. 73, (S)-N-[[3-[3-Fluoro[4-[3-(1α,5α,6α)-6-[N-(3-thienoyl)-N-methyl]amino]-3-aza-bicyclo[3.1.0]hexane]phenyl]-2-oxo-5-oxazolidinyl]methyl]acetamide] | 8 µg/mL (≈ 16.9 µM) | 8 µg/mL (≈ 16.9 µM) | 8 µg/mL (≈ 16.9 µM) | 8 µg/mL (≈ 16.9 µM) | 8 µg/mL (≈ 16.9 µM) | 1 µg/mL (≈ 2.12 µM) | 4 µg/mL (≈ 8.46 µM) | 8 µg/mL (≈ 16.9 µM) | 
